From patent US8021694B2, “Acidified chlorite disinfectant compositions with olefin stabilizers” (Ecolab USA Inc., priority 2001, dated 2011)

What was measured:
Assay type in all cases: physicochemical
[1] = Rate of color fading at 35° C. of mixed acidified chlorite product, UV/Vis spectroscopy at 425 nm; conditions: for Initial Color Intensity Remaining, Time After Mixing 1 hour: 1 hour after mixing; for Initial Color Intensity Remaining, Time After Mixing 2 hour: 2 hour after mixing; for Initial Color Intensity Remaining, Time After Mixing 3 hour: 3 hour after mixing; for Initial Color Intensity Remaining, Time After Mixing 4 hour: 4 hour after mixing
Procedure: (§1) The rate of color fading at 35° C. was quantified by UV/Vis spectroscopy at 425 nm.
as §1

[2] = Rate of sodium chlorite consumption, standard iodometric titration; conditions: olefin compound at 1.4%
Excerpt: The rate of sodium chlorite consumption was quantified using a standard iodometric titration method.

[3] = Rate of chlorine dioxide generation in mixed acidified chlorite product, UV/Vis spectroscopy at 360 nm; conditions: olefin 0.0225M in mixed product, 1.32% lactic acid, 0.32% sodium chlorite, pH 2.75; for Chlorine Dioxide, Time After Mixing 1 hour: 1 hour after mixing; for Chlorine Dioxide, Time After Mixing 2 hour: 2 hour after mixing; for Chlorine Dioxide, Time After Mixing 3 hour: 3 hour after mixing; for Chlorine Dioxide, Time After Mixing 4 hour: 4 hour after mixing; for Chlorine Dioxide, Time After Mixing 5 hour: 5 hour after mixing
Procedure: A series of two-part acidified chlorite products were prepared that when combined 1:1 produced compositions containing 1.32% lactic acid, 0.32% sodium chlorite, an olefin compound formulated at a 0.0225M, and sufficient quantities of sodium hydroxide to produce a mixed product pH of 2.75. The rate of chlorine dioxide generation was determined by UV/Vis spectroscopy at 360 nm (54.31 ppm/A.U. cm).

[4] = olefin 0.045M in acid part (0.0225M mixed), FD&C Yellow #5, pH 2.75
[5] = component at 0.4%, mixed product pH 2.75

In the case of `CCCCCCCC/C=C\CCCCCCCC(=O)NCCOC(=O)C(CC(=O)[O-])S(=O)(=O)[O-].[Na+].[Na+]` (centres unmarked) [Disodium oleamido MEA sulfosuccinate], the “Initial Color Intensity Remaining, Time After Mixing 1 hour” value [1, 4] is reported as “** (>50% of Initial Color Intensity Remaining)”, the “Initial Color Intensity Remaining, Time After Mixing 2 hour” value [1, 4] is reported as “** (>50% of Initial Color Intensity Remaining)” and the “Initial Color Intensity Remaining, Time After Mixing 3 hour” value [1, 4] is reported as “** (>50% of Initial Color Intensity Remaining)”. The “Initial Color Intensity Remaining, Time After Mixing 4 hour” value [1, 4] was “** (>50% of Initial Color Intensity Remaining)” and the “Initial Color Intensity Remaining, Time After Mixing ½ hour” value [1, 4] was “** (>50% of Initial Color Intensity Remaining)”.
In the case of `CCCCCCCC/C=C\CCCCCCCC(=O)NCCC[N+](C)(C)CC(=O)[O-]` [Oleamidopropyl betaine], the “Initial Color Intensity Remaining, Time After Mixing 1 hour” value [1, 4] is reported as “** (>50% of Initial Color Intensity Remaining)”, the “Initial Color Intensity Remaining, Time After Mixing 2 hour” value [1, 4] is reported as “** (>50% of Initial Color Intensity Remaining)” and the “Initial Color Intensity Remaining, Time After Mixing 3 hour” value [1, 4] is reported as “** (>50% of Initial Color Intensity Remaining)”. For the same molecule, the “Initial Color Intensity Remaining, Time After Mixing 4 hour” value [1, 4] was “** (>50% of Initial Color Intensity Remaining)” and the “Initial Color Intensity Remaining, Time After Mixing ½ hour” value [1, 4] was “** (>50% of Initial Color Intensity Remaining)”.
For `CCCCCCCC/C=C\CCCCCCCC(=O)N(C)CCS(=O)(=O)[O-].[Na+]` [Sodium N-methyl oleoyl taurate, sodium N-methyl oleoyl taurate], the “Initial NaClO2 Level remaining, Time After Mixing 1 hour” value ([2]; 1 hour after mixing, pH 2.75 when mixed 1:1) was “** (>50% Initial NaClO2 Level)”, the “Initial NaClO2 Level remaining, Time After Mixing 2 hour” value ([2]; 2 hour after mixing, pH 2.75 when mixed 1:1) was “** (>50% Initial NaClO2 Level)” and the “Initial NaClO2 Level remaining, Time After Mixing 3 hour” value ([2]; 3 hour after mixing, pH 2.75 when mixed 1:1) was “** (>50% Initial NaClO2 Level)”. For the same molecule, the “Initial NaClO2 Level remaining, Time After Mixing 4 hour” value ([2]; 4 hour after mixing, pH 2.75 when mixed 1:1) was “** (>50% Initial NaClO2 Level)”, the “Initial NaClO2 Level remaining, Time After Mixing 5 hour” value ([2]; 5 hour after mixing, pH 2.75 when mixed 1:1) was “** (>50% Initial NaClO2 Level)” and the “Rate of sodium chlorite consumption” value ([2]; equal weight-base comparison, in words) was “stronger effect than alpha olefin sulfonate”. The “Chlorine Dioxide, Time After Mixing 1 hour” value [3] was 4 ppm, the “Chlorine Dioxide, Time After Mixing 2 hour” value [3] was 5 ppm and the “Chlorine Dioxide, Time After Mixing 3 hour” value [3] was 5 ppm. For the same molecule, the “Chlorine Dioxide, Time After Mixing 4 hour” value [3] was 6 ppm, the “Chlorine Dioxide, Time After Mixing 5 hour” value [3] was 7 ppm and the “Initial Color Intensity Remaining, Time After Mixing 1 hour” value [1, 5] was “** (>50% of Initial Color Intensity Remaining)”. For the same molecule, the “Initial Color Intensity Remaining, Time After Mixing 1 hour” value [1, 4] was “** (>50% of Initial Color Intensity Remaining)”, the “Initial Color Intensity Remaining, Time After Mixing 2 hour” value [1, 5] was “** (>50% of Initial Color Intensity Remaining)” and the “Initial Color Intensity Remaining, Time After Mixing 2 hour” value [1, 4] was “** (>50% of Initial Color Intensity Remaining)”. For the same molecule, the “Initial Color Intensity Remaining, Time After Mixing 3 hour” value [1, 5] was “** (>50% of Initial Color Intensity Remaining)”, the “Initial Color Intensity Remaining, Time After Mixing 3 hour” value [1, 4] was “** (>50% of Initial Color Intensity Remaining)” and the “Initial Color Intensity Remaining, Time After Mixing 4 hour” value [1, 4] was “** (>50% of Initial Color Intensity Remaining)”. The “Extension of colorant intensity” value ([1]; component at 0.4%, in words) was “extended the colorant intensity longer”, the “Initial Color Intensity Remaining, Time After Mixing ½ hour” value [1, 5] was “** (>50% of Initial Color Intensity Remaining)” and the “Initial Color Intensity Remaining, Time After Mixing ½ hour” value [1, 4] was “** (>50% of Initial Color Intensity Remaining)”.
With `CCCCCCCC/C=C\CCCCCCCC[N+](C)(CCO)CCO.[Cl-]` [oleylmethylbis(hydroxyethyl)ammonium chloride] the “Initial Color Intensity Remaining, Time After Mixing 1 hour” value [1, 4] was “** (>50% of Initial Color Intensity Remaining)”, the “Initial Color Intensity Remaining, Time After Mixing 2 hour” value [1, 4] was “** (>50% of Initial Color Intensity Remaining)” and the “Initial Color Intensity Remaining, Time After Mixing 3 hour” value [1, 4] was “** (>50% of Initial Color Intensity Remaining)”. For the same molecule, the “Initial Color Intensity Remaining, Time After Mixing 4 hour” value [1, 4] was “** (>50% of Initial Color Intensity Remaining)” and the “Initial Color Intensity Remaining, Time After Mixing ½ hour” value [1, 4] was “** (>50% of Initial Color Intensity Remaining)”.
For Oleth-10, the “Chlorine Dioxide, Time After Mixing 1 hour” value [3] was 10 ppm, the “Chlorine Dioxide, Time After Mixing 2 hour” value [3] was 16 ppm and the “Chlorine Dioxide, Time After Mixing 3 hour” value [3] was 21 ppm. For the same molecule, the “Chlorine Dioxide, Time After Mixing 4 hour” value [3] was 25 ppm, the “Chlorine Dioxide, Time After Mixing 5 hour” value [3] was 28 ppm and the “Initial Color Intensity Remaining, Time After Mixing 1 hour” value [1, 4] was “** (>50% of Initial Color Intensity Remaining)”. For the same molecule, the “Initial Color Intensity Remaining, Time After Mixing 2 hour” value [1, 4] was “** (>50% of Initial Color Intensity Remaining)”, the “Initial Color Intensity Remaining, Time After Mixing 3 hour” value [1, 4] was “** (>50% of Initial Color Intensity Remaining)” and the “Initial Color Intensity Remaining, Time After Mixing 4 hour” value [1, 4] was “** (>50% of Initial Color Intensity Remaining)”. The “Initial Color Intensity Remaining, Time After Mixing ½ hour” value [1, 4] was “** (>50% of Initial Color Intensity Remaining)”.
With Oleth-10 phosphate the “Chlorine Dioxide, Time After Mixing 1 hour” value [3] was 7 ppm, the “Chlorine Dioxide, Time After Mixing 2 hour” value [3] was 14 ppm and the “Chlorine Dioxide, Time After Mixing 3 hour” value [3] was 17 ppm. The “Chlorine Dioxide, Time After Mixing 4 hour” value [3] was 21 ppm, the “Chlorine Dioxide, Time After Mixing 5 hour” value [3] was 25 ppm and the “Initial Color Intensity Remaining, Time After Mixing 1 hour” value [1, 4] was “** (>50% of Initial Color Intensity Remaining)”. For the same molecule, the “Initial Color Intensity Remaining, Time After Mixing 2 hour” value [1, 4] was “** (>50% of Initial Color Intensity Remaining)”, the “Initial Color Intensity Remaining, Time After Mixing 3 hour” value [1, 4] was “** (>50% of Initial Color Intensity Remaining)” and the “Initial Color Intensity Remaining, Time After Mixing 4 hour” value [1, 4] was “** (>50% of Initial Color Intensity Remaining)”. The “Initial Color Intensity Remaining, Time After Mixing ½ hour” value [1, 4] was “** (>50% of Initial Color Intensity Remaining)”.
